Results taken from patent US20260083698A1, “Synergistic Stimulation of Mucociliary Clearance to Treat Mucus Obstruction in Cystic Fibrosis and Other Muco-Obstructive Disorders” (The Board of Trustees of the Leland Stanford Junior …, priority 2022, published 2026).

Assays:
piglet tracheal rings = assay: Airway narrowing: lumen area of thin sliced tracheal rings, methacholine; parameters: species or system pig; details: 0.3 or 0.6 mM methacholine alone
Experimental: Airway smooth muscle contraction measurement. Two methods were used to measure tracheal smooth muscle contraction. One is designed to measure airway narrowing using thin sliced tracheal rings. Piglet or ferret tracheal ring preparations of ˜2 mm were submerged and securely pinned on a Sylgard-lined Petri dish filled with KRB solution at 37° C. and pH 7.4. Digital images of tracheal ring contractions in response to agonists for 1-10 min intervals were recorded with a Nikon digital camera and the inner lumen surface area of the tracheal ring was calculated using ImageJ (NIH, MD/USA). The other method is using a force transducer. One end of an isolated ferret trachealis muscle bundle was secured in a Sylgard-lined Petri dish filled with KRB solution and the other end was attached by 26-gauge wire to a previously calibrated strain gauge (series 400A force transducer system, Cambridge Technology, MA/USA).

WT piglet tracheas = assay: Mucociliary clearance velocity (MCCV) in ex vivo WT piglet tracheas; parameters: species or system pig
Experimental: MCCV in tracheas was measured from 2 to 5 days old WT piglets (see “Methods” section for details). […] The 8 piglet tracheas were divided into two groups and tested 4 by applying forskolin first and 4 by applying carbachol first, followed by the combined agonists.
These experiments used forskolin to elevate cAMP.
Pig tissues. Newborn WT piglet tracheas (2-5 days old) were directly obtained at the swine facility of UC Davis or from the laboratory of David Stoltz, University of Iowa, via overnight priority express. Postmortem (<1 h) tracheas from young adult Yorkshire pigs (30-50 kg) and 5-12 months old M. putorius ferrets were from animal facilities at Stanford and Gilroy/CA. All methods using animal tracheae were carried out in accordance with relevant guidelines and regulations of Stanford University and animal protocols were approved (Stanford IACUC protocol#: 10,048). Piglet tracheas were shipped in DMEM cell culture medium, other animal tissues were transported to the laboratory in cold PhysioSol™ solution (Hospira, IL/USA) and then transferred to icecold Krebs Ringer bicarbonate (KRB) buffer gassed with 95% O2 and 5% CO2 and kept at 4° C. until use. The KRB buffer contained (in mM): 115 NaCl, 25 NaHCO3, 2.4 K2HPO4, 0.4 KH2PO4, 1.2 MgCl2, 1.2 CaCl2, 10 glucose, and 1.0 μM indomethacin, adjusted to pH 7.2 and ˜290 mOsm at room temperature.
MCCV measurement. Details are in the previous reports (16,59,60). Briefly, each whole length ferret or piglet trachea, or a CF tracheal trim, was cut open along the mid-dorsal line and mounted mucosal side up onto a Sylgard elastomer platform. […] The prepared trachea was placed into a sealed, humidified chamber bubbled continuously with gas (95%/5%-O2/CO2) with the serosal surface bathed with KRB buffer±drugs. […] Then excess apical solution was drained, and tissue was incubated for an additional 10 min before starting baseline measurements of MCCV. Drugs were added by bath replacement with pre-warmed bath+drug(s). Summary MCCV data are reported as a single number and based on the averaged MCCV during the last 20 min of the treatment period unless stated otherwise.
MCCV (all values are in mm/min) was then measured for 90-120 min and plotted as MCCV vs time and agonist(s) in FIG. 8.
It was hypothesized that the synergistic MCC induced by β-adrenergic and cholinergic agonists involved ENaC inhibition.

pig tracheal mucosa = assay: Short circuit current (Isc) and conductance, Ussing chamber, pig; details: pig tracheal mucosa; sequential 10 μM forskolin, 0.3 μM carbachol, 10 μM benzamil, 20 μM BPO-27, 200 μM niflumic acid
Source text: FIG. 4. Combined agonists inhibit sodium absorption and stimulate anion secretion by surface epithelia. (A) Cartoon of two electrogenic, ion transport pathways across airway apical epithelium: anion secretion increases surface fluid, Na+ absorption decreases surface fluid. The two pathways have opposite effects on fluid depth, but additive effects on short circuit current (Isc) because of their opposite valence and transport directions. (B) Raw trace of Isc across pig tracheal epithelium using Chart 4 software. After reaching a stable, unstimulated Isc (here, >2 h post-mounting), 10 μM forskolin, 0.3 μM carbachol, 10 μM benzamil, 20 μM benzopyrimido-pyrrolo-oxazinedione (BPO-27) and 200 μM niflumic acid were sequentially added at times shown. (C, D) Pig tracheal mucosa: averaged Δ Isc plots over time in response to (C) forskolin alone followed by forskolin+carbachol and (D) reversed order of agonist addition. (E & F) Ferret tracheal mucosa: averaged A Isc plots with same protocol as for pigs. Pig traces (C, D) are based on 10-12 experiments with tissues from 6 to 7 pigs. Ferret traces (E, F) are from 7 experiments with tissues from 5 ferrets.
Combined agonists stimulate epithelial surface anion secretion and inhibit Na^+ absorption. The surface epithelia also modify ASL. FIG. 4A is a cartoon of the main ion flows controlling ASL depth: anion-mediated fluid secretion increases, and Na^+-mediated fluid absorption decreases ASL depth. It was hypothesized that the combined agonists increase ASL depth and thus MCCV by stimulating secretion and inhibiting absorption (see also FIG. 6). […] With no counterbalancing absorption ASL depth is predicted to increase (dotted gold line in FIG. 6A) unless MCCV increases.
Inhibiting Na+ absorption would increase net fluid accumulation on the surface. […]
Electrophysiology. […] Total tissue conductance was calculated by applying Ohm's law to the Isc deflection resulting from a 1 mV pulse across the tissues every 20 s during the experiment. […]

ex vivo WT pig tracheas = assay: ASL height by synchrotron-based phase contrast imaging; details: 10 μM formoterol (T30-T50); synergy agonists (T65-T85)
Experimental: ASL heights were determined in pig tracheal preparations using synchrotron-based phase contrast imaging (PCI). The synchrotron beamline produces enough parallel spatial coherence X-ray to increase the contrast between airway lumen and ASL layer by PCI. When X-rays pass through the intact tracheal preparation, the difference in refractive index between ASL and airway lumen results in a phase shift of X-rays that causes a distinctive interference pattern shown on the charge-coupled device (CCD) detector as variations in X-ray intensity.

[1] = system: sheep with induced CF airway disease; assay: Tracheal mucus velocity (TMV) in sheep CF model (CFTRinh172 + hNE); assay type: in vivo; details: inhalation, 20 μg Formoterol
Experimental: Briefly, adult sheep are placed in an upright position in a specialized body harness and under local anesthesia the animals are nasally intubated with a standard endotracheal (ET) tube. Tracheal mucus velocity (TMV), the in vivo equivalent of MCCV, is measured by a fluoroscopic technique. Five to seven radiopaque Teflon/bismuth trioxide disks (1 mm in diameter, 0.8-mm in thickness, and 1.8 mg in weight) are insufflated into the mid-portion of the animal's trachea. Once the disks are delivered into the trachea, the cephalad-axial velocity of each individual disk is recorded on videotape from a portable image intensifier unit in-line with the fluoroscope. The mean value of all the disk velocities is calculated for a given time point, with new disks insufflated pat subsequent time points. After baseline values are determined, animals receive by aerosolization 10 mg of CFTRinh172 and TMV measurements are repeated hourly for the following 2 hours. Then the animals receive by aerosolization 1190 mU of human Neutrophil Elastase (hNE) and TMV measurements are repeated hourly for the following 2 hours. […] Methacholine alone was not tested as this will induce severe bronchospasm and compromise the life of the animal. After test agent administration by inhalation, the TMV was measured hourly for 12 hours and at 24 hours.

CC(=O)OC(C)C[N+](C)(C)C (centres unmarked) [methacholine]
sustained reduction of lumen area (piglet tracheal rings): 20-40%
effect on MCCV (WT piglet tracheas; piglet tracheas, 10 μM formoterol or 0.3 μM methacholine alone): only a small increase

Cn1c(=O)c2c(-c3ccccc3)n3c(c2n(C)c1=O)C(c1ccc(Br)o1)Oc1ccc(C(=O)O)cc1-3 (centres unmarked) [BPO-27, benzopyrimido-pyrrolo-oxazinedione]
effect on Isc, raw trace (pig tracheal mucosa): steep drops in Isc and conductance

NC(=NCc1ccccc1)NC(=O)c1nc(Cl)c(N)nc1N [benzamil]
increase of baseline MCCV by ENaC inhibition (WT piglet tracheas; 10 μM benzamil vs without benzamil, piglets): ~6 times
baseline MCCV with benzamil (WT piglet tracheas; 10 μM benzamil, no agonists, piglets): 3.0±0.7 mm/min

O=C(O)c1cccnc1Nc1cccc(C(F)(F)F)c1 [niflumic acid]
effect on Isc, raw trace (pig tracheal mucosa): steep drops in Isc and conductance

COc1ccc(CC(C)NCC(O)c2ccc(O)c(NC=O)c2)cc1 (centres unmarked) [formoterol]
average rate of ASL height increase (ex vivo WT pig tracheas): 1.7±0.1 μm/min
effect on TMV compared to the control [1]: barely had any effect
